Drawing on ChEMBL document CHEMBL4483862, “Open-source discovery of chemical leads for next-generation chemoprotective antimalarials” (2018), this text covers IC50 and IC90 for 37 molecules.

One may read the IC50 as the midpoint of a concentration-inhibition curve. The term IC90 denotes the concentration at which the effect reaches the 90% level.

This test has as its system Plasmodium berghei. The test is described as follows: Luciferase/luciferin-expressing antifolate-resistant parasites were used to infect a culture of HepG2 cells that were pre-incubated with compounds. Infected hepatocytes emit light due to the luciferase reaction. Assay results are presented as the percent inhibition of light emission compared to control. […]. The format is functional. The following applies: sporozoite; for IC90: read-out: LUCIFERASE INFECTION ASSAY - IC90.

The mark [1] stands for this setting: read-out: LUCIFERASE INFECTION ASSAY - IC50.

SMILES strings stand for the structures. Where only a bound is given, the exact number is not on record here.

On to `CN(C)CCNC(=O)c1ccc(-c2cn3c(-c4ccc(Cl)cc4)cnc3cn2)cc1`, for which the IC90 stood at 3.79 µM. For the setting “HEPG2TOX_HILL_SLOPE 1.7, HEPG2TOX_R_SQUARED 0.889, PBLUC_HILL_SLOPE 9.39, PBLUC_R_SQUARED 0.389, read-out: LUCIFERASE INFECTION ASSAY - IC50”, the IC50 was 3 µM.
Turning to `CC1=C(C#N)C(/C=N/N(C)c2ncc(C(F)(F)F)cc2Cl)CC(=O)N1` (centres undefined), the IC90 turned out to be 3.84 µM. The half-inhibitory concentration (IC50) (HEPG2TOX_HILL_SLOPE 2.47, HEPG2TOX_R_SQUARED 0.965, PBLUC_HILL_SLOPE 13.6, PBLUC_R_SQUARED 0.0536, read-out: LUCIFERASE INFECTION ASSAY - IC50) amounted to 3.27 µM.
For the molecule `Clc1ccc(-c2cnc3cnc(-c4ccc(NCCN5CCOCC5)nc4)cn23)cc1`, the IC90 was determined as 7.4 µM. Besides, the IC50 (HEPG2TOX_HILL_SLOPE 7.91, HEPG2TOX_R_SQUARED 0.577, PBLUC_HILL_SLOPE 49, PBLUC_R_SQUARED 0.381, read-out: LUCIFERASE INFECTION ASSAY - IC50) was 7.08 µM.
With `Cc1cc(NC(=O)c2cc(C(C)(C)C)oc2C)nc(C)n1`, the IC90 was greater than 11.5 µM. The IC50 under setting [1] is greater than 11.5 µM.
With `FC(F)(F)c1cc(Nc2ncnc3sc(-c4ccccc4)cc23)ccc1Cl`, the IC90 was greater than 10 µM. Also, the IC50 (FFLUC_HILL_SLOPE 9.86, FFLUC_R_SQUARED 0.42, HEPG2TOX_HILL_SLOPE 7.8, HEPG2TOX_R_SQUARED 0.241, read-out: LUCIFERASE INFECTION ASSAY - IC50) was greater than 10 µM.
As for `CCNC(=O)COc1ccc(/C=C/C(=O)c2ccc(N3CCCCC3)cc2)cc1OC`, the concentration for an effect of 90% (IC90) is greater than 10 µM. Further, for the setting “HEPG2TOX_HILL_SLOPE 9.05, HEPG2TOX_R_SQUARED 0.908, PBLUC_HILL_SLOPE 2.57, PBLUC_R_SQUARED 0.344, read-out: LUCIFERASE INFECTION ASSAY - IC50”, the IC50 was 5.12 µM.
For `CN1CCN(S(=O)(=O)c2ccc(SCC3CCCCC3)nc2)CC1`, the 90% effect concentration (IC90) is greater than 10 µM. Also, the IC50 under setting [1] is greater than 10 µM.
Take `COC(=O)c1cc(Br)ccc1NC(=O)c1cccc(S(=O)(=O)N(Cc2ccccc2)c2ccccc2Cl)c1`: the IC90 is greater than 10 µM. The IC50 under setting [1] was greater than 10 µM.
For the molecule `O=c1c2ccc(Cl)cc2nc(-c2cccc(C(F)(F)F)c2)n1O`, the IC90 is greater than 9.69 µM. In addition, under setting [1], the 50% inhibitory concentration (IC50) was greater than 9.69 µM.
On to `O=C(c1cn(-c2ccccc2)nc1-c1cccs1)N1c2ccccc2CCc2ccccc21`, for which the IC90 was greater than 10 µM. The IC50 (FFLUC_HILL_SLOPE 15.3, FFLUC_R_SQUARED 0.476, HEPG2TOX_HILL_SLOPE 1.99, HEPG2TOX_R_SQUARED 0.329, PBLUC_HILL_SLOPE 2.58, PBLUC_R_SQUARED 0.689, read-out: LUCIFERASE INFECTION ASSAY - IC50) stood at 6.76 µM.
Regarding `COCC(C)n1c(C)cc(C(=O)COC(=O)[C@@H]2CCCN2C(=O)c2cccs2)c1C` (some centres undefined), the concentration for an effect of 90% (IC90) was greater than 10 µM. For the same molecule, the IC50 under setting [1] was greater than 10 µM.
With `COc1ccc(OC)c(CSc2nnc(Nc3cccc(F)c3)s2)c1`, the IC90 is greater than 10 µM. The IC50 under setting [1] was greater than 10 µM.
On to `Cc1cc(C2(c3cc(C)n(-c4ccccc4)c3C)CCC(C)CC2)c(C)n1-c1ccccc1`, for which the IC90 is greater than 10 µM. The IC50 (FFLUC_HILL_SLOPE 2.77, FFLUC_R_SQUARED 0.531, read-out: LUCIFERASE INFECTION ASSAY - IC50) was greater than 10 µM.
Regarding `COc1ccc(NC(=O)c2cc(-c3ccccc3)n(-c3ccccc3)c2C)cc1`, the IC90 was 4.38 µM. The concentration for half-maximal inhibition (IC50) (HEPG2TOX_HILL_SLOPE 0.976, HEPG2TOX_R_SQUARED 0.937, PBLUC_HILL_SLOPE 1.32, PBLUC_R_SQUARED 0.59, read-out: LUCIFERASE INFECTION ASSAY - IC50) came to 0.834 µM.
With `CCOC(=O)c1c(C)nn(-c2ccc(N3C(=O)C=CC3=O)cc2)c1C`, the IC90 was greater than 9.72 µM. Also, the IC50 (PBLUC_HILL_SLOPE 1.49, PBLUC_R_SQUARED 0.186, read-out: LUCIFERASE INFECTION ASSAY - IC50) is 6.99 µM.
On to `COc1ccc(N2CCN(CCCNc3ncnc4cc(Cl)ccc34)CC2)cc1`, for which the IC90 is 3.54 µM. Moreover, for the setting “HEPG2TOX_HILL_SLOPE 6.44, HEPG2TOX_R_SQUARED 0.109, PBLUC_HILL_SLOPE 114, 20.9, PBLUC_R_SQUARED 0.138, 0.588, read-out: LUCIFERASE INFECTION ASSAY - IC50”, the IC50 worked out at 3.33 µM.
Turning to `C/C(=N\NC(=S)Nc1ccccc1)c1ccn[nH]1`, the IC90 was greater than 12.7 µM. Also, the 50% inhibitory concentration (IC50) (FFLUC_HILL_SLOPE 48.7, FFLUC_R_SQUARED 0.514, PBLUC_HILL_SLOPE 3.68, PBLUC_R_SQUARED 0.194, read-out: LUCIFERASE INFECTION ASSAY - IC50) was found to be 8.67 µM.
Regarding `OCc1ccc(-c2cnc3cnc(-c4ccccc4CO)cn23)cc1`, the IC90 was greater than 9.96 µM. Under setting [1], the 50% inhibitory concentration (IC50) is greater than 9.96 µM.
With `O=C(Nc1cccc(C(F)(F)F)c1)Nc1ncc([N+](=O)[O-])s1`, the IC90 came out at 2.73 µM. Further, the IC50 (HEPG2TOX_HILL_SLOPE 2.24, HEPG2TOX_R_SQUARED 0.981, PBLUC_HILL_SLOPE 1.72, PBLUC_R_SQUARED 0.576, read-out: LUCIFERASE INFECTION ASSAY - IC50) came out at 0.759 µM.
As for `CCn1c2ccccc2c2cc(NC(=O)CN3CCN(Cc4ccc5c(c4)OCO5)CC3)ccc21`, the IC90 is greater than 10 µM. For the same molecule, the IC50 (PBLUC_HILL_SLOPE 2.07, PBLUC_R_SQUARED 0.0912, read-out: LUCIFERASE INFECTION ASSAY - IC50) was 8.08 µM.
With `CN(C)c1c(/C=C2\C(=O)Nc3ccccc32)cc(/C=C2/C(=O)Nc3ccccc32)c(N(C)C)c1C#N`, the IC90 is 4.13 µM. For the same molecule, for the setting “FFLUC_HILL_SLOPE 3.06, FFLUC_R_SQUARED 0.454, HEPG2TOX_HILL_SLOPE 1.28, HEPG2TOX_R_SQUARED 0.858, PBLUC_HILL_SLOPE 2.4, PBLUC_R_SQUARED 0.768, read-out: LUCIFERASE INFECTION ASSAY - IC50”, the IC50 was found to be 1.65 µM.
Take `Cc1ccc2nc(C(F)(F)F)c(C(=O)NCc3cc(Cl)cc(Cl)c3)n2c1`: the IC90 was greater than 8.2 µM. In addition, the IC50 under setting [1] was greater than 8.2 µM.
Regarding `O=C(Nc1cccc2c[nH]nc12)c1ccc(Oc2ccccc2)cc1`, the IC90 is greater than 10 µM. Moreover, the IC50 (PBLUC_HILL_SLOPE 18.4, PBLUC_R_SQUARED 0.556, read-out: LUCIFERASE INFECTION ASSAY - IC50) is 9.05 µM.
For the molecule `Cn1c(-c2c(-c3ccccc3)n[nH]c2-c2ccc([N+](=O)[O-])cc2)nc2ccccc21`, the IC90 worked out at 9.52 µM. Besides, the IC50 (PBLUC_HILL_SLOPE 3.22, PBLUC_R_SQUARED 0.201, read-out: LUCIFERASE INFECTION ASSAY - IC50) came out at 4.81 µM.
Take `O=C(Nc1ccc(Cl)cc1)Nc1ccc2c(c1)no[n+]2[O-]`: the IC90 was found to be 8.03 µM. The IC50 (HEPG2TOX_HILL_SLOPE 58.7, HEPG2TOX_R_SQUARED 0.822, PBLUC_HILL_SLOPE 3.98, PBLUC_R_SQUARED 0.47, read-out: LUCIFERASE INFECTION ASSAY - IC50) was found to be 4.62 µM.
On to `COc1cccc(CNCCCSc2nnnn2-c2ccccc2)c1`, for which the IC90 is greater than 9.28 µM. The IC50 under setting [1] is greater than 9.28 µM.
As to `Cc1ccc(NC(=O)c2cc(C(C)(C)C)n(-c3ccccc3)c2C)cc1`, the IC90 was found to be 4.46 µM. The IC50 under setting [1] is 0.52 µM.
As for `CCCNC(=O)c1c(NC(=O)c2ccc(F)cc2F)nc2ccc(C)cn12`, the IC90 turned out to be 3.51 µM. For the same molecule, the IC50 (HEPG2TOX_HILL_SLOPE 5.63, HEPG2TOX_R_SQUARED 0.519, PBLUC_HILL_SLOPE 14, PBLUC_R_SQUARED 0.432, read-out: LUCIFERASE INFECTION ASSAY - IC50) worked out at 2.99 µM.
For `Cc1cc(-c2nc(=O)c3ccccc3[nH]2)c(C)n1-c1cccc(S(=O)(=O)N2CCOCC2)c1`, the IC90 is greater than 10 µM. For the same molecule, for the setting “PBLUC_HILL_SLOPE 0.619, PBLUC_R_SQUARED 0.0201, read-out: LUCIFERASE INFECTION ASSAY - IC50”, the IC50 is greater than 10 µM.
With `CC(C)(C)c1ccc(-c2nnc(SCc3ccccc3)n2-c2cccc(C(F)(F)F)c2)cc1`, the IC90 was greater than 7.06 µM. Further, the IC50 (PBLUC_HILL_SLOPE 9.35, PBLUC_R_SQUARED 0.201, read-out: LUCIFERASE INFECTION ASSAY - IC50) was determined as 6.61 µM.
As to `CC(C)NS(=O)(=O)c1cccc(CNc2ncnc3ccccc23)c1`, the IC90 turned out to be 2.34 µM. The half-inhibitory concentration (IC50) (HEPG2TOX_HILL_SLOPE 0.638, HEPG2TOX_R_SQUARED 0.943, PBLUC_HILL_SLOPE 2.45, PBLUC_R_SQUARED 0.694, read-out: LUCIFERASE INFECTION ASSAY - IC50) came out at 0.954 µM.
Regarding `CCCS(=O)(=O)/C(C#N)=N/Nc1cc(C(F)(F)F)cc(C(F)(F)F)c1`, the IC90 came to 4.41 µM. For the same molecule, for the setting “PBLUC_HILL_SLOPE 6.87, PBLUC_R_SQUARED 0.748, read-out: LUCIFERASE INFECTION ASSAY - IC50”, the IC50 is 3.21 µM.
On to `O=C(Nc1nc2ccccc2[nH]1)c1oc2ccccc2c1COc1ccccc1`, for which the IC90 is greater than 10 µM. Also, under setting [1], the IC50 was greater than 10 µM.
As for `CC(C)Cc1nc(N2CCN(C(=O)c3ccco3)CC2)c(C#N)c2c1CCCC2`, the IC90 was 3.93 µM. The IC50 under setting [1] is 3.18 µM.
For the molecule `FC(F)(F)Oc1ccc(-c2ccc(OCc3ccccn3)nc2)cc1`, the IC90 is greater than 9.53 µM. Moreover, for the setting “HEPG2TOX_HILL_SLOPE 9.63, HEPG2TOX_R_SQUARED 0.944, read-out: LUCIFERASE INFECTION ASSAY - IC50”, the IC50 was greater than 9.53 µM.
As for `CC(C)CC(NC(=O)c1ccc(C#N)cc1)c1ccccc1` (centres undefined), the IC90 came out at 9.52 µM. Besides, the 50% inhibitory concentration (IC50) (PBLUC_HILL_SLOPE 10.9, 7.64, PBLUC_R_SQUARED 0.439, 0.355, read-out: LUCIFERASE INFECTION ASSAY - IC50) was 8.11 µM.
Regarding `C=S(NC(=O)c1ccc(Cl)cc1)c1sc(C(=O)OCC)c2c1C(=O)CCC2` (centres undefined), the IC90 is greater than 7.78 µM. Moreover, the IC50 (PBLUC_HILL_SLOPE 23.8, PBLUC_R_SQUARED 0.121, read-out: LUCIFERASE INFECTION ASSAY - IC50) was greater than 7.78 µM.
